Measurements reported in patent US20130302282A1, “Inhibitors of Hepatitis C Virus” (priority 2010, published 2013).
Where two headings read alike, the source gives them in different places.

System: 1b_Huh-Luc/Neo-ET cell line (bicistronic genotype 1b replicon in Huh 7 cells)
Test: HCV 1b replicon assay, luciferase readout
Type: cell-based, HCV genotype 1b
Conditions: Hepatitis C virus
Protocol: Biological activity of the compounds of the invention was determined using an HCV replicon assay. The 1b_Huh-Luc/Neo-ET cell line persistently expressing a bicistronic genotype 1b replicon in Huh 7 cells was obtained from ReBLikon GMBH. This cell line was used to test compound inhibition using luciferase enzyme activity readout as a measurement of compound inhibition of replicon levels.
On Day 1 (the day after plating), each compound is added in triplicate to the cells. Plates incubated for 72 […] prior to running the luciferase assay. Enzyme activity was measured using a Bright-Glo Kit (cat. number E2620) manufactured by Promega Corporation. The following equation was used to generate a percent control value for each compound.
%Control=(Average Compound Value/Average Control)*100
The EC50 value was determined using GraphPad Prism and the following equation:
Y=Bottom+(Top−Bottom)/(1+10̂((LogIC50−X)*HillSlope))
EC50 values of compounds are repeated several times in the replicon assay.

[1] = Huh-7, 1b_Huh-Luc/Neo-ET cell line, read-out: EC50, half-maximal inhibition of HCV 1b replication
[2] = Huh-7, class symbol, HCV genotype 1b replicon, read-out: Inhibition of HCV genotype 1b replicon

SMILES: CNC(=O)c1c(-c2ccc(F)cc2OC)oc2cc3c(cc12)C(C)CCCN3S(C)(=O)=O (stereo not shown) [Compound B84]
- EC50 [1]: 10 to 100 nM
- EC50 [2]: 10 to 100 nM

SMILES: [2H]C([2H])([2H])NC(=O)c1c(-c2ccc(F)cc2)oc2cc3c(cc12)C1CC1CCN3S(C)(=O)=O (stereo not shown) [Compound B128]
- EC50 [1]: ≤ 10 nM
- EC50 [2]: < 10 nM

SMILES: CS(=O)(=O)N1CCCCc2cc3c(C#N)c(-c4ccc(F)cc4)oc3cc21 [Compound B53]
- EC50 [2]: > 1000 nM

SMILES: CNC(=O)c1c(-c2ccc(Oc3ccc(F)cc3)cc2)oc2cc3c(cc12)[C@H](C)O[C@H](COC(=O)[C@H](C)N)CN3S(C)(=O)=O [Compound B238]
- EC50 [1]: ≤ 10 nM
- EC50 [2]: < 10 nM

SMILES: CS(=O)(=O)N1CCCCc2cc3c(-c4ncn[nH]4)c(-c4ccc(F)cc4)oc3cc21 [Compound B58]
- EC50 [2]: 100 to 1000 nM

SMILES: CNC(=O)c1c(-c2ccc(F)cc2)oc2cc3c(cc12)C(C)OCC(CO)N3S(C)(=O)=O (stereo not shown) [Compound B219]
- EC50 [1]: 10 to 100 nM
- EC50 [2]: 10 to 100 nM

SMILES: CNC(=O)c1c(-c2ccc(F)cc2)oc2cc3c(cc12)CCCCN3S(=O)(=O)C1CC1 [Compound B93]
- EC50 [1]: 10 to 100 nM
- EC50 [2]: 10 to 100 nM

SMILES: CNC(=O)c1c(-c2ccc(F)cc2)nn2cc3c(cc12)C(C)CCCN3S(C)(=O)=O (stereo not shown) [Compound B50]
- EC50 [2]: 100 to 1000 nM

SMILES: CNC(=O)c1c(-c2ccc(F)cc2)oc2cc3c(cc12)C(C)OC(CO)CN3S(C)(=O)=O (stereo not shown) [Compound B195]
- EC50 [1]: 10 to 100 nM
- EC50 [2]: 10 to 100 nM

SMILES: CCN1CCN(S(C)(=O)=O)c2cc3oc(-c4ccc(F)cc4)c(C(=O)NC)c3cc2C1C (stereo not shown) [Compound B144]
- EC50 [1]: 10 to 100 nM
- EC50 [2]: 10 to 100 nM

SMILES: CNC(=O)c1c(-c2ccc(Oc3ccc(F)cc3)cc2)oc2cc3c(cc12)[C@@H](C)CCCN3S(C)(=O)=O (single isomer, unassigned) [Compound B86]
- EC50 [2]: 100 to 1000 nM

SMILES: C=CCN1CCN(S(C)(=O)=O)c2cc3oc(-c4ccc(F)cc4)c(C(=O)NC)c3cc2C1C (stereo not shown) [Compound B54]
- EC50 [1]: 10 to 100 nM
- EC50 [2]: 10 to 100 nM

SMILES: CNC(=O)c1c(-c2ccc(Oc3ccc(F)cc3)cc2)oc2cc3c(cc12)C(C)CCCN3S(C)(=O)=O (stereo not shown) [Compound B47]
- EC50 [1]: 10 to 100 nM
- EC50 [2]: 10 to 100 nM

SMILES: CNC(=O)c1c(-c2ccc(Oc3ccc(F)cc3)cc2)oc2cc3c(cc12)C=CCCN3S(C)(=O)=O [Compound B135]
- EC50 [2]: 100 to 1000 nM

SMILES: CNC(=O)c1c(-c2ccc(Oc3ccccc3)cc2)nn2cc3c(cc12)C(C)CCCN3S(C)(=O)=O (stereo not shown) [Compound B90]
- EC50 [2]: 100 to 1000 nM

SMILES: [2H]C([2H])([2H])NC(=O)c1c(-c2ccc(Oc3ccc(F)cc3)cc2)oc2cc3c(cc12)C(C)N(C)CCN3S(C)(=O)=O (stereo not shown) [Compound B160]
- EC50 [1]: 10 to 100 nM
- EC50 [2]: 10 to 100 nM

SMILES: CNC(=O)c1c(-c2ccc(Oc3ccc(F)cc3)cc2)oc2cc3c(cc12)C(C)NC(=O)CN3S(C)(=O)=O (stereo not shown) [Compound B175]
- EC50 [1]: 10 to 100 nM
- EC50 [2]: 10 to 100 nM

SMILES: CNC(=O)c1c(-c2ccc(F)cc2)oc2cc3c(cc12)C(C)OC1(CC1)CN3S(C)(=O)=O (stereo not shown) [Compound B188]
- EC50 [1]: 10 to 100 nM
- EC50 [2]: 10 to 100 nM

SMILES: CNC(=O)c1c(-c2ccc(F)cc2)oc2cc3c(cc12)CC(C)CCN3S(C)(=O)=O (stereo not shown) [Compound B92]
- EC50 [1]: ≤ 10 nM
- EC50 [2]: < 10 nM

SMILES: CNC(=O)c1c(-c2ccc(F)cc2)nn2cc3c(cc12)[C@@H](C)CCCN3S(C)(=O)=O (single isomer, unassigned) [Compound B51]
- EC50 [2]: > 1000 nM

SMILES: CNC(=O)c1c(-c2ccc(Oc3ccc(F)cc3)cc2)oc2cc3c(cc12)C(C)=CCCN3S(C)(=O)=O [Compound B48]
- EC50 [1]: 10 to 100 nM
- EC50 [2]: 10 to 100 nM

SMILES: CNC(=O)c1c(-c2ccc(F)cc2)oc2cc3c(cc12)C(C)c1ccccc1CN3S(C)(=O)=O (stereo not shown) [Compound B199]
- EC50 [1]: 10 to 100 nM
- EC50 [2]: 10 to 100 nM
